The values below come from US20070270400A1, “New compounds 303” (priority 2006, published 2007).

The structures appear in SMILES notation.

Series [1] addresses hERG-encoded potassium channel (Homo sapiens, UniProt Q12809). The series is described as follows: Activity against hERG, planar-array-based voltage clamp. Format: cell-based. The text has this: The activity of compounds according to formula I against the hERG-encoded potassium channel can be determined according to Kiss L, et al. Assay Drug Dev Technol. 1 (2003), 127-35: “High throughput ion-channel pharmacology: planar-array-based voltage clamp”.
A general note: hERG is a cardiac potassium channel; its block is linked to QT prolongation.

Another series deals with T1, human NK1 receptor (Homo sapiens, UniProt P25103).
T1 construct: expressed in transfected cells; AstraZeneca R&D Wilmington), pRcCMV vector
The series can be described thus: FLIPR assay, inhibition of human NK1 receptor activation (intracellular Ca2+). Format: cell-based. To be noted: CHO cells with human NK1 receptor, agonist Substance P; pKB converted from IC50. How it is done:
(§1) Chinese Hamster Ovary (CHO) K1 cells (obtained from ATCC) were stably transfected with the human NK2 receptor (hNK2R cDNA in pRc/CMV, Invitrogen) or the human NK3 receptor (hNK3R in pcDNA 3.1/Hygro (+)/IRES/CD8, Invitrogen vector modified at AstraZeneca EST-Bio UK, Alderley Park). The cells were transfected with the cationic lipid reagent LIPOFECTAMINE™ (Invitrogen) and selection was performed with Geneticin (G418, Invitrogen) at 1 mg/ml for the hNK2R transfected cells and with Hygromycin (Invitrogen) at 500 μg/ml for the hNK3R transfected cells. Single cell clones were collected by aid of Fluorescence Activated Cell Sorter (FACS), tested for functionality in a FLIPR assay (see below), expanded in culture and cryopreserved for future use. […]
(§2) The activity of a compound of the invention to inhibit NK1/NK2/NK3 receptor activation measured as NK1/NK2/NK3 receptor mediated increase in intracellular Ca^2+ was assessed by the following procedure:
(§3) CHO cells stably transfected with human NK1, NK2 or NK3 receptors were plated in black walled/clear bottomed 96-well plates (Costar 3904) at 3.5×10^4 cells per well and grown for approximately 24 h in normal growth media in a 37° C. […] The response was measured as the peak relative fluorescence after agonist addition and IC50s were calculated from ten-point concentration-response curves for each compound. […]

The target in the next series is T2, human NK3 receptor (Homo sapiens, UniProt P29371).
T2 construct: expressed in transfected cells
T2 sequence (P29371 1-465): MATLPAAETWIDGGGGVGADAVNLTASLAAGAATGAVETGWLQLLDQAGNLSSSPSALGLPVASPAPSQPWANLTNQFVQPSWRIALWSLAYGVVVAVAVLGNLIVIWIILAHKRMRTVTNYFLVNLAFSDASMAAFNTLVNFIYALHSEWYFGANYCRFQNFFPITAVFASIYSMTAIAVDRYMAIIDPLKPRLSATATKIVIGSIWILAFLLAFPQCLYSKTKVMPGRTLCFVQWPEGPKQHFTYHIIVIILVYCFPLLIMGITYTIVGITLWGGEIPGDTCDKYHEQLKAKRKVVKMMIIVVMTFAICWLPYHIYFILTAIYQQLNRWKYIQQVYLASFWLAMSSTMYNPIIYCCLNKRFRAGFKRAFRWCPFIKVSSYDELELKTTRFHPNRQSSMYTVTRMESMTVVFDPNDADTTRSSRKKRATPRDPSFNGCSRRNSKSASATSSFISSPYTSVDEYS
The series is described as follows: FLIPR assay, inhibition of human NK3 receptor activation (intracellular Ca2+). Format: cell-based. Conditions: CHO cells with human NK3 receptor, agonist Pro-7-NKB; pKB converted from IC50. How it is done: as §1, §2, §3

For the next series, the target named is CYP3A4 (Homo sapiens, UniProt P08684). The series is described as follows: CYP3A4 inhibition according to Bapiro et al. The series is classed as in vitro ADME. As for the experimental part: The IC50 values tested according to Bapiro et al; Drug Metab. Dispos. 29, 30-35 (2001) were generally greater than 15 μM.
The next series has as its target T3, human NK2 receptor (Homo sapiens, UniProt P21452).
T3 construct: expressed in transfected cells
T3 sequence (P21452 1-398): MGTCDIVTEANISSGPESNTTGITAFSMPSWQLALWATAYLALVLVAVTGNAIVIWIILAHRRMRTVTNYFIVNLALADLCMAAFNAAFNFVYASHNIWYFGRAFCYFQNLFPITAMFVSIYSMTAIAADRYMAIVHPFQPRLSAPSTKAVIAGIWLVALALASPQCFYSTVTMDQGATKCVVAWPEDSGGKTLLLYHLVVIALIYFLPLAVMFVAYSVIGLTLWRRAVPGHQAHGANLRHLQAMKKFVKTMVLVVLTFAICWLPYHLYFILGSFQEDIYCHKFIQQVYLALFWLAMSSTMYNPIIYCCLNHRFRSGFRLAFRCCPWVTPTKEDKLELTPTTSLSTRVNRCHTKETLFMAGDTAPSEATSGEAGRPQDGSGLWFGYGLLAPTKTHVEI
The series can be described thus: FLIPR assay, inhibition of human NK2 receptor activation (intracellular Ca2+). The series is classed as cell-based. Conditions: CHO cells with human NK2 receptor, agonist NKA; pKB converted from IC50. As for the experimental part:
as §1, §2, §3

Series [2] can be described thus: Metabolic stability in liver microsomes (intrinsic clearance). The series is classed as in vitro ADME. Conditions: human, pH 7.4, HLM. As for the experimental part:
The rate of biotransformation can be measured as either metabolite(s) formation or the rate of disappearance of the parent compound. The experimental design involves incubation of low concentrations of substrate (usually 1.0 μM) with liver microsomes (usually 0.5 mg/ml) and taking out aliquotes at varying time points (usually 0, 5, 10, 15, 20, 30, 40 min.). The test compound is usually dissolved in DMSO. The DMSO concentration in the incubation mixture is usually 0.1% or less since more solvent can drastically reduce the activities of some CYP450s. Incubations are done in 100 mM potassium phosphate buffer, pH 7.4 and at 37° C. Acetonitrile or methanol is used to stop the reaction. The parent compound is analysed by HPLC-MS. From the calculated half-life, t1/2, the intrinsic clearance, Clint, is estimated by taking microsomal protein concentration and liver weight into account.
In general terms: Liver microsomes are vesicles of endoplasmic reticulum, rich in cytochrome P450 enzymes.

Sequence of hERG-encoded potassium channel (Q12809 whole entry): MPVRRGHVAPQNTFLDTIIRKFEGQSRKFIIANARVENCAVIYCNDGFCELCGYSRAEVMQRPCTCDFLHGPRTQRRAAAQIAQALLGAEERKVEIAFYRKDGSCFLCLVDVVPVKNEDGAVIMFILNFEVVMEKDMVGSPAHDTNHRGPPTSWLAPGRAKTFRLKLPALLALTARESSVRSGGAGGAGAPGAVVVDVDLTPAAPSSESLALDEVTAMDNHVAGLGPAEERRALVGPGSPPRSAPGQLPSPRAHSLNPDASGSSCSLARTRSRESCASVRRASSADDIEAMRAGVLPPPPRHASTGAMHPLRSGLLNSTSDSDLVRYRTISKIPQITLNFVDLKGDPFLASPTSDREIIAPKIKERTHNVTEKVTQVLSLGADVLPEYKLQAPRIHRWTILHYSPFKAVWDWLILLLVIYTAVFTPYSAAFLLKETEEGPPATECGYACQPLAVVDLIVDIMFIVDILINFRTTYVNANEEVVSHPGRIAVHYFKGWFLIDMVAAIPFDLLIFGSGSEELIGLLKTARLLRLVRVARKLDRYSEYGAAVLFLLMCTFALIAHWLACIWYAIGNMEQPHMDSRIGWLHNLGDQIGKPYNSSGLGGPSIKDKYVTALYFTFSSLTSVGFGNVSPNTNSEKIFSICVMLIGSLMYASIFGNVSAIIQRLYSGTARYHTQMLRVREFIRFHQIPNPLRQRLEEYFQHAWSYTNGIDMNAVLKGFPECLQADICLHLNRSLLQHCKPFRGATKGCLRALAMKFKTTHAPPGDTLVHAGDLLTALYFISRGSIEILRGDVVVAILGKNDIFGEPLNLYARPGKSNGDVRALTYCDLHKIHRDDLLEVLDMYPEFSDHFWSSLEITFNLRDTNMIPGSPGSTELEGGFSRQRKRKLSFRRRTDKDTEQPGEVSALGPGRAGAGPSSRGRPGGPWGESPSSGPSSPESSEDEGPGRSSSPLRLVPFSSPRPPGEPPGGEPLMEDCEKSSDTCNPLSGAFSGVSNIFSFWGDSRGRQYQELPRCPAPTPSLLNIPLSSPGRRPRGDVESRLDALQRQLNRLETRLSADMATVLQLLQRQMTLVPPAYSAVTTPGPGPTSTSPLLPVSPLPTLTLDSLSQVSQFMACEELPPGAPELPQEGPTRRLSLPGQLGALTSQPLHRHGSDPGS
T1 sequence (P25103 whole entry): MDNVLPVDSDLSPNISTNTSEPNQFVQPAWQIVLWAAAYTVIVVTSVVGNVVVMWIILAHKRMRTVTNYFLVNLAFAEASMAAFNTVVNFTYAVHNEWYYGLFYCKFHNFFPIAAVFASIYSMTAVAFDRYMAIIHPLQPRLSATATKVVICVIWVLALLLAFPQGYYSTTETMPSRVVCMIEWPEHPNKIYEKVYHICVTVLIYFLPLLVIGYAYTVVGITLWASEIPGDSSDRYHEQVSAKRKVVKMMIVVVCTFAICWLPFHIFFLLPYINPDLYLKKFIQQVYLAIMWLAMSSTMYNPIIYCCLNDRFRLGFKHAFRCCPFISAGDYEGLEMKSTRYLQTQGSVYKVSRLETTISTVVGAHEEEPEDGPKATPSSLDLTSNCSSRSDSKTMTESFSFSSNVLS
Sequence of CYP3A4 (P08684 whole entry): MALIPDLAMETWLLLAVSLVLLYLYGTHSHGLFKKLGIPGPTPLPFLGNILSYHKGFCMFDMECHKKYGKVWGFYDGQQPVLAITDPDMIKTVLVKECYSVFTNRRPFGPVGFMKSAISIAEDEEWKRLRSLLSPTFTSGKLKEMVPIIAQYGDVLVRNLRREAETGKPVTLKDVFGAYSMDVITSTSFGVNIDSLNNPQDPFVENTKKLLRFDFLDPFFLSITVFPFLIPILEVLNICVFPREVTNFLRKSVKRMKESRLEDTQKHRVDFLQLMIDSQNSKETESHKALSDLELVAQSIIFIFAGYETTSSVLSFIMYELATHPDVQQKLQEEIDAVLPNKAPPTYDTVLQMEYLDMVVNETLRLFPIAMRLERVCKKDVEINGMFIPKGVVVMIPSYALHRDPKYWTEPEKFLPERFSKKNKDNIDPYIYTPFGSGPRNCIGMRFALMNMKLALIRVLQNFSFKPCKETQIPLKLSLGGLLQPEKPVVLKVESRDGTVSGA

Turning to `CC(C)C(=O)N1CCN(C2CN(CC[C@H](CN(C)C(=O)c3cc(Cl)cc(C(F)(F)F)c3)c3ccc(F)cc3)C2)CC1` [Ex 2, 3-Chloro-N-{(2S)-2-(4-fluorophenyl)-4-[3-(4-isobutyrylpiperazin-1-yl)azetidin-1-yl]butyl}-N-methyl-5-(trifluoromethyl)benzamide], the IC50 in series [1] came out at 6.6 µM; against CYP3A4 it was 18.3 µM. In addition, the Kb at human NK1 receptor is 10 nM; on human NK3 receptor, 63.1 nM; at human NK2 receptor it was 31.6 nM. The molecule also gave a microsomal CLint at 1 μM in series [2] of 36 µL/min/mg.

Broadly, the IC50 is the concentration that inhibits the measured activity by half. Broadly, the microsomal CLint is a measure of how fast metabolising enzymes remove a compound, apart from limits set by blood flow. A lower microsomal CLint goes with slow turnover.
